Assay results taken from PMC7904827 (Scientific Reports, 2021).
Structures can show the parent of a compound that is named as a salt.

How the values were obtained:
[1] = Post-preparation stability of the extracted analytes in autosampler (8 °C); assay type: physicochemical
Description: Linearity was tested within the concentration range of 0.2 – 100 μM for all compounds in DMEM, the buffer and plasma and 10-100 pmol/106cells in NVCMs (method I). For […]
Unweighted and weighted (1/x and 1/x2) linear regression was applied to obtain the best fitting calibration model.
Accuracy and precision were calculated at 4 levels (LLOQ, low, medium and high concentrations). Five quality control (QC) samples were used for all concentration levels. […]
(§1) Stability of the analytes was examined at low and high concentrations. Process s tability (n=3) in plasma was tested for 20 min at either laboratory temperature (23 °C) or on ice (4 °C, only for GK-667). Post-preparation stability was examined for 8 to 10 h in an autosampler (8 °C, n=3) for all treated matrices. […]
plasma was tested at -80 °C and the freezing cycle was repeated twice (n=3). The buffer, DMEM, NVCMs and plasma samples containing GK -667 from in vitro studies and from first intervals of pharmacokinetic study (up to 20 min) w ere treated and analyzed immediately after […]

[2] = Approximate solubility in distilled water at room temperature; assay type: physicochemical; settings: distilled water, room temperature
Description: The syntheses of the target prodrugs were performed according to a known three-step procedure with some modifications. Target prodrugs GK-667, GK-678 and GK-691 were obtained in 34%, 37% and 17% overall yields, respectively. […] The resulting solutions remained physically stable for at least two hours at room temperature.

[3] = system: neonatal ventricular cardiomyocytes (NVCMs); test: In vitro cardioprotection bioassay against daunorubicin toxicity (LDH release); assay type: cell-based, rat; settings: 3 h preincubation, DAU 1.2 µM, LDH release after 48 h
Description: NVCMs were isolated in-house from 1- to 3-day-old Wistar rats as described previously. The use of animals and experimental protocols were approved by Charles University, Faculty of Pharmacy Animal Welfare Committee. All experiments were performed in accordance with Directive 2010/63/EU on the Protection of Animals Used for Scientific Purposes and in compliance with Animal Research: Reporting of In Vivo Experiments (ARRIVE) guidelines. Newly isolated cardiomyocytes were left for 40 h to form a monolayer of spontaneously beating cardiomyocytes in seeding medium (DMEM/F12 supplemented with 10% HS, 5% FBS, 4% PYR and 1% P/S), which was then replaced with culture medium (DMEM/F12 supplemented with 5% FBS, 4% PYR and 1% P/S). The medium was replaced again after 24 h for new culture medium.
(§2) After 3 h, DAU solution (1.2 µM) was added to the media. After another 3 h, the medium was replaced with new (drug-free) exposure medium, and the cardiomyocytes were then kept until the end of the experiment. In addition to cytoprotective properties, the toxicity of the studied agent was also examined; this experiment was performed as described above with only the DAU addition step omitted.
(§3) Forty-five hours after the last medium exchange, a sample of medium was taken from each well to assess lactate dehydrogenase (LDH) activity[27]–[29]. For details, see the Supplementary material.
(§4) 1.5 LDH activity evaluation
(§5) The control wells were treated with lysis buffer (0.1 M potassium phosphate, 1% Triton
(§6) X-100, 1 mM DTT, 2 mM EDTA; pH 7.8; 15 min; room temperature) to measure the total
(§7) cellular LDH level (sum of the activity in the control medium and the lysate). The activity of
(§8) LDH was assayed in Tris-HCl buffer (pH 8.9) containing 35 mM sodium lactate and 5 mM
(§9) NAD+. The rate of NAD+ reduction was monitored spectrophotometrically at 340 nm for 2 min.
(§10) The slope of the linear region and molar absorption coefficient e = 6.22*10 3 M/cm were used
(§11) to calculate the LDH activity, and the data were expressed as a percentage of total L DH activity. […]

[4] = Solubility and stability of the GK-667 dosing solution in saline; assay type: physicochemical
Description: This dose of the prodrug was easily soluble in a commercially available saline solution (sodium chloride 0.9%, B-Braun, Germany) at a concentration of 5 mg/mL, which is convenient for administration to rabbits as an experimental animal model and could also be used for future pharmacodynamics experiments.
GK-667 was freshly dissolved in saline (5 mg/mL) before each administration. New Zealand White male rabbits (n = 6, ∼3.8 kg) received GK-667 (5 mg/kg) administered as a single slow (2 min) intravenous dose bolus to the ear marginal vein. Blood (∼1 mL) was sampled from veins on the contralateral ear at selected time points after drug administration (5 min to 9 h) into BD Vacutainers (BD Biosciences, Plymouth, UK) containing lithium heparin. Collected blood samples were immediately centrifuged (2 min, 3000 rpm, 4 °C), and plasma samples were harvested directly.

[5] = system: neonatal ventricular cardiomyocytes (NVCMs); test: Toxicity of the prodrugs alone in NVCMs (LDH release); assay type: cell-based, rat
Description: as §2, §3, §4, §5, §6, §7, §8, §9, §10, §11

[6] = Process stability in untreated plasma; assay type: in vitro ADME, rabbit; settings: within 10 min
Description: Linearity was tested within the concentration range of 0.2 – 100 μM for all compounds in DMEM, the buffer and plasma and 10-100 pmol/106cells in NVCMs (method I). For method II, the concentration ranges 0.01-15 μM and 0.01-1 μM were used for determination of ICRF-193 and ICRF-193met in plasma, respectively. Unweighted and weighted (1/x and 1/x2) linear regression was applied to obtain the best fitting calibration model. […]
as §1

## C[C@H]([C@H](C)N1CC(=O)N(COC(=O)CN)C(=O)C1)N1CC(=O)N(COC(=O)CN)C(=O)C1 [GK-667, meso-2,3-bis(4-(2-aminoacetoxymethyl)-3,5-dioxopiperazin-1-yl)butane tetrahydrochloride]
[1]; extracted DMEM, 100 µM, 0 h
  percentage of initial concentration in autosampler: 100.1%
[1]; extracted DMEM, 100 µM, 8 h
  percentage of initial concentration in autosampler: 92.2%
[1]; extracted DMEM, 100 µM, 10 h
  percentage of initial concentration in autosampler: 90.2%
[1]; extracted NVCMs, 100 pmol/106 cells, 0 h
  percentage of initial concentration in autosampler: 103.3%
[1]; extracted NVCMs, 100 pmol/106 cells, 8 h
  percentage of initial concentration in autosampler: 105.2%
[1]; extracted NVCMs, 100 pmol/106 cells, 10 h
  percentage of initial concentration in autosampler: 103.3%
[1]; extracted buffer, 100 µM, 0 h
  percentage of initial concentration in autosampler: 99.5%
[1]; extracted buffer, 100 µM, 8 h
  percentage of initial concentration in autosampler: 92.9%
[1]; extracted buffer, 100 µM, 10 h
  percentage of initial concentration in autosampler: 92.8%
[1]; extracted plasma, 100 µM, 0 h
  percentage of initial concentration in autosampler: 101.5%
[1]; extracted plasma, 100 µM, 8 h
  percentage of initial concentration in autosampler: 102.1%
[1]; extracted plasma, 100 µM, 10 h
  percentage of initial concentration in autosampler: 102.7%
[2]
  solubility: ~20 mg/mL
[3]
  lowest concentration with significant protection against DAU-induced toxicity: matched the results of ICRF-193
[4]; 5 mg/mL in saline, 20 °C
  time the saline solution stays physically and chemically stable: at least 1 h
[4]; 5 mg/mL in saline, 20 °C, 1 h
  GK-667 concentration remaining in saline solution: ≥ 95 % of the initial amount
[4]; saline (sodium chloride 0.9%)
  solubility: ≥ 5 mg/mL
[5]; LDH release, without DAU
  cytotoxicity of the prodrug alone towards NVCMs: nontoxic on its own
[5]; prodrug alone 1–100 µM, NVCMs, n.s. or c in Fig. S2
  LDH release, statistical significance compared to control: n.s.
[6]; plasma samples at room temperature (23 °C)
  GK-667 decomposed: ~50%
[6]; plasma samples on ice
  GK-667 decomposed: less than 6%
